Ends that are not written are not given here.
Biological target: T1, ADRA2A (Homo sapiens, UniProt P08913)
T1 construct: host or cells: cAMP Hunter cell line
Assay: ADRA2A GPCR cAMP modulation assay
Format: cell-based
Details: compared to the controls
Method: GPCR cAMP Modulation Assays: cAMP Hunter cell lines were grown, plated, and subjected to Eurofins’ DiscoverX HitHunter cAMP XS+ assay. Gs agonist activity, Gi agonist activity, and antagonist activity-induced assays were read using chemiluminescent signal detection. The percentage of activity was calculated for Gs and Gi agonist assays, and the percentage of inhibition was calculated for Gs antagonist assays. […]
cAMP Second ary Messenger Assay pound results in the release of calcium from intracellular stores and DiscoverX has developed a panel of cell lines stably expressing non- an increase in dye fluorescence that is measured in real-time. tagged GPCRs that endogenously signal through cAMP. […]
The enzyme is split into two complementary portions: Enzyme Ac-ceptor (EA) and Enzyme Donor (ED). […] Active enzyme can then convert a chemilumines-cent substrate, generating an output signal detectable on a standard The NHR is tagged with the ProLink™ (PK) component of our EFC microplate reader. assay system, and the SRCP domain is fused to the Enzyme Ac-ceptor component (EA) expressed in the nucleus. […]

T1 sequence (P08913 whole entry): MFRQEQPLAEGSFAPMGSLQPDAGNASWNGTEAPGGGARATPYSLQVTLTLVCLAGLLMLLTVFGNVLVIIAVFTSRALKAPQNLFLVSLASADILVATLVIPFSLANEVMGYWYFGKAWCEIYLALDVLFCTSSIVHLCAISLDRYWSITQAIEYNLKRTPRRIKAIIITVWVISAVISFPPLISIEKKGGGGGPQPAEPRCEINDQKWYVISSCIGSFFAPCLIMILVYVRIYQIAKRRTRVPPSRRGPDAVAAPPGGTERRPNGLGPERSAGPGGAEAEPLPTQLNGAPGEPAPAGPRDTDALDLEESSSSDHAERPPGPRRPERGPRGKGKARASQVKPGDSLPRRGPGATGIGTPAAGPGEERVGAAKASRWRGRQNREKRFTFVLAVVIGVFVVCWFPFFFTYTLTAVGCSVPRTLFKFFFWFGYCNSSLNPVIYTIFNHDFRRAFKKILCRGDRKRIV

## APWHLSSQYSRT [CTP]
  agonist or antagonist action: no significant action as either an agonist or antagonist
